Measured values as given in PMC8007833, “Insights into Acinetobacter baumannii fatty acid synthesis 3-oxoacyl-ACP reductases” (Scientific Reports, 2021).

Key:
FabG (ABO11256.2) [1] = target: T1, FabG (ABO11256.2) (Acinetobacter baumannii, UniProt V5VHN7); experiment: X-ray crystal structure of co-crystal, […] Å; format: binding; details: co-crystallised at 1:10 protein to coenzyme, 0.1 M Tris pH 8.0, 2 M ammonium sulphate; coenzyme site
T1 construct: codon-optimised gene in pMCSG21, E. coli BL21(DE3) pLysS; N-terminal 6-His tag cut by TEV; 244 residues, 26 kDa protomer, homotetramer about 100 kDa
T1 sequence (V5VHN7 1-244): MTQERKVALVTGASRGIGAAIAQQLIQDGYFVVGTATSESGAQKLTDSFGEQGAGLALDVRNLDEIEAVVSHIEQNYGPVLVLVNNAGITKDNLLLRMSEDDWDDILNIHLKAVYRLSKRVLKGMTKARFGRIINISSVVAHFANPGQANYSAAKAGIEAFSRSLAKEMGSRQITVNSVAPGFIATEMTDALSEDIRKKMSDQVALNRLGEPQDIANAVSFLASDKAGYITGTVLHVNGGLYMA

HMwFabG (ABO12488.2) = target: T2, HMwFabG (ABO12488.2) (Acinetobacter baumannii, UniProt A0A219C8F5); experiment: coenzyme oxidation, absorbance at […] nm; format: biochemical; details: 200 µM NADH, 500 µM acetoacetyl-CoA, 20 mM HEPES pH 7.4, 125 mM NaCl, 37 °C, 30 min
T2 construct: gene fabG_9; codon-optimised gene in pMCSG21, E. coli BL21(DE3) pLysS; N-terminal 6-His tag cut by TEV; 463 residues, 48 kDa protomer, homodimer
T2 sequence (A0A219C8F5 1-463): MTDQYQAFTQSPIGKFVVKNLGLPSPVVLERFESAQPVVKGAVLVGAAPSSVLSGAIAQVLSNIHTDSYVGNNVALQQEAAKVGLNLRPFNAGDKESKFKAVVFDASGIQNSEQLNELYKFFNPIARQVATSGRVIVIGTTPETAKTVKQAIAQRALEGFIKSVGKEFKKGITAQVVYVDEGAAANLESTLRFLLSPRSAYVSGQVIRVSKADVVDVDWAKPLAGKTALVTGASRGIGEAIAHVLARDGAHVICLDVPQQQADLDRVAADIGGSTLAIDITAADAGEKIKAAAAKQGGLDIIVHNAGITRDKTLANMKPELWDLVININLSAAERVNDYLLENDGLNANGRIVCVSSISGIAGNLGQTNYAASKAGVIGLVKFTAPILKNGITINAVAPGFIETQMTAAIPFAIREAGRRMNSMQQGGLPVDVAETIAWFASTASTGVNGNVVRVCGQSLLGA

FabG (ABO11256.2) [2] = target: T1, FabG (ABO11256.2); experiment: coenzyme oxidation, absorbance at […] nm; format: biochemical; details: 500 µM acetoacetyl-CoA, 200 µM NADPH, 20 mM HEPES pH 7.4, 125 mM NaCl, 37 °C, 30 min

Q: For `NC(=O)C1=CN([C@@H]2O[C@H](COP(=O)(O)OP(=O)(O)OC[C@H]3O[C@@H](n4cnc5c(N)ncnc54)[C@H](OP(=O)(O)O)[C@@H]3O)[C@@H](O)[C@H]2O)C=CC1` [NADPH], which “X-ray crystal structure of co-crystal, 1.85 Å” value (FabG (ABO11256.2) [1]) is on record?
A: strong positive density allowing NADPH to be modelled within each protomer

Q: How did the “coenzyme oxidation, absorbance at 340 nm” value (HMwFabG (ABO12488.2)) turn out when `NC(=O)C1=CN([C@@H]2O[C@H](COP(=O)(O)OP(=O)(O)OC[C@H]3O[C@@H](n4cnc5c(N)ncnc54)[C@H](O)[C@@H]3O)[C@@H](O)[C@H]2O)C=CC1` [NADH] was run?
A: Our enzyme assays showed clear preference for NADH as the catalytic coenzyme

Q: `CC(=O)CC(=O)SCCNC(=O)CCNC(=O)[C@H](O)C(C)(C)COP(=O)(O)OP(=O)(O)OC[C@H]1O[C@@H](n2cnc3c(N)ncnc32)[C@H](O)[C@@H]1OP(=O)(O)O` [acetoacetyl-CoA] was tested. Which “coenzyme oxidation, absorbance at 340 nm” value (HMwFabG (ABO12488.2)) did it give?
A: Enzyme activity of HMwFabG with acetoacetyl-CoA

Q: What about the “coenzyme oxidation, absorbance at 340 nm” value (FabG (ABO11256.2) [2]) of the same compound?
A: enzyme assays were conducted in the presence of a substrate mimic, acetoacetyl-CoA
